# Reference: ChEMBL document CHEMBL4507310, “Data for DCP probe A-1211212” (2021)
# How the values were obtained:
# [1] = biological target: Ribosomal protein S6 kinase alpha-4 (Homo sapiens) (UniProt O75676); details: Compound concentration 1000.0 nM
# [2] = biological target: Tyrosine-protein kinase receptor TYRO3 (Homo sapiens) (UniProt Q06418); details: Compound concentration 1000.0 nM
# [3] = biological target: Vascular endothelial growth factor receptor 2 (Homo sapiens) (UniProt P35968); details: Compound concentration 1000.0 nM
# [4] = biological target: Serine/threonine-protein kinase 38 (Homo sapiens) (UniProt Q15208); details: Compound concentration 1000.0 nM
# [5] = biological target: Dual specificity protein kinase CLK2 (Homo sapiens) (UniProt P49760); details: Compound concentration 1000.0 nM
# [6] = biological target: 3-phosphoinositide-dependent protein kinase 1 (Homo sapiens) (UniProt O15530); details: Compound concentration 1000.0 nM
# [7] = biological target: Serine/threonine-protein kinase ULK2 (Homo sapiens) (UniProt Q8IYT8); details: Compound concentration 1000.0 nM
# [8] = biological target: Serine/threonine-protein kinase PRP4 homolog (Homo sapiens) (UniProt Q13523); details: Compound concentration 1000.0 nM
# [9] = tested on: Receptor-type tyrosine-protein kinase FLT3 (Homo sapiens), P36888 [K663Q]; details: Compound concentration 1000.0 nM
# [10] = tested on: Proto-oncogene tyrosine-protein kinase receptor Ret (Homo sapiens), P07949 [M918T]; details: Compound concentration 1000.0 nM
# [11] = biological target: Ankyrin repeat and protein kinase domain-containing protein 1 (Homo sapiens) (UniProt Q8NFD2); details: Compound concentration 1000.0 nM
# [12] = biological target: NUAK family SNF1-like kinase 2 (Homo sapiens) (UniProt Q9H093); details: Compound concentration 1000.0 nM
# [13] = tested on: Hepatocyte growth factor receptor (Homo sapiens), P08581 [M1250T]; details: Compound concentration 1000.0 nM
# [14] = biological target: Phosphatidylinositol 5-phosphate 4-kinase type-2 gamma (Homo sapiens) (UniProt Q8TBX8); details: Compound concentration 1000.0 nM
# [15] = biological target: Vasopressin V1a receptor (Homo sapiens) (UniProt P37288); assay: V1 a (h) Eurofins-Cerep binding assay; set-up: ligand concentration 0.3 nM; details: filed as agonist, Compound concentration 10.0 uM
# [16] = biological target: T1, Alpha-2B adrenergic receptor (Homo sapiens) (UniProt P18089); details: Compound concentration 10.0 uM
# T1 sequence (whole entry): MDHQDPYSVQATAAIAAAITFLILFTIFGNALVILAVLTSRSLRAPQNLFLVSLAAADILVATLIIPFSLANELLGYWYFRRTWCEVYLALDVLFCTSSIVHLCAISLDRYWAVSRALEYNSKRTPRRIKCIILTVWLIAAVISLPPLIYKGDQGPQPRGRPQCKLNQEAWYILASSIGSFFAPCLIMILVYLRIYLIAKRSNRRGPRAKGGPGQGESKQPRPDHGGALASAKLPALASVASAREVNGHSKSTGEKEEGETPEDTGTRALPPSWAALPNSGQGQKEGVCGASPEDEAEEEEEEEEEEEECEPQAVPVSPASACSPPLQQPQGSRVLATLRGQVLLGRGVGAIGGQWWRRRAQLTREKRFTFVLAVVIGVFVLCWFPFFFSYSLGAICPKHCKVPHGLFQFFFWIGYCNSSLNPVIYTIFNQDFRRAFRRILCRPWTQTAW
# [17] = biological target: Mitogen-activated protein kinase kinase kinase 20 (Homo sapiens) (UniProt Q9NYL2); details: Compound concentration 1000.0 nM
# [18] = biological target: Serine/threonine-protein kinase PLK1 (Homo sapiens) (UniProt P53350); details: Compound concentration 1000.0 nM
# [19] = biological target: Fibroblast growth factor receptor 1 (Homo sapiens) (UniProt P11362); details: Compound concentration 1000.0 nM
# [20] = biological target: Phosphatidylinositol 4,5-bisphosphate 3-kinase catalytic subunit beta isoform (Homo sapiens) (UniProt P42338); details: Compound concentration 1000.0 nM
# [21] = biological target: SNF-related serine/threonine-protein kinase (Homo sapiens) (UniProt Q9NRH2); details: Compound concentration 1000.0 nM
# [22] = biological target: Interleukin-1 receptor-associated kinase 1 (Homo sapiens) (UniProt P51617); details: Compound concentration 1000.0 nM
# [23] = biological target: Mitogen-activated protein kinase 4 (Homo sapiens) (UniProt P31152); details: Compound concentration 1000.0 nM
# [24] = biological target: Aurora kinase C (Homo sapiens) (UniProt Q9UQB9); details: Compound concentration 1000.0 nM
# [25] = biological target: Homeodomain-interacting protein kinase 4 (Homo sapiens) (UniProt Q8NE63); details: Compound concentration 1000.0 nM
# [26] = biological target: Mitogen-activated protein kinase kinase kinase 2 (Homo sapiens) (UniProt Q9Y2U5); details: Compound concentration 1000.0 nM
# [27] = biological target: Mitogen-activated protein kinase kinase kinase kinase 5 (Homo sapiens) (UniProt Q9Y4K4); details: Compound concentration 1000.0 nM
# [28] = biological target: Dual specificity mitogen-activated protein kinase kinase 4 (Homo sapiens) (UniProt P45985); details: Compound concentration 1000.0 nM
# [29] = biological target: Mitogen-activated protein kinase kinase kinase kinase 4 (Homo sapiens) (UniProt O95819); details: Compound concentration 1000.0 nM
# [30] = biological target: Proto-oncogene tyrosine-protein kinase receptor Ret (Homo sapiens) (UniProt P07949); details: Compound concentration 1000.0 nM
# [31] = biological target: cGMP-dependent protein kinase 2 (Homo sapiens) (UniProt Q13237); details: Compound concentration 1000.0 nM
# [32] = biological target: Mitogen-activated protein kinase 9 (Homo sapiens) (UniProt P45984); details: Compound concentration 1000.0 nM
# [33] = biological target: Adenosine receptor A2b (Homo sapiens) (UniProt P29275); assay: A2B (h) Eurofins-Cerep binding assay; set-up: ligand concentration 5 nM; details: filed as antagonist, Compound concentration 10.0 uM
# [34] = biological target: Serine/threonine-protein kinase haspin (Homo sapiens) (UniProt Q8TF76); details: Compound concentration 1000.0 nM
# [35] = biological target: Non-receptor tyrosine-protein kinase TYK2 (Homo sapiens) (UniProt P29597); details: Compound concentration 1000.0 nM
# [36] = tested on: Epidermal growth factor receptor (Homo sapiens), P00533 [UNDEFINED MUTATION]; details: Compound concentration 1000.0 nM
# [37] = biological target: Tyrosine-protein kinase Fes/Fps (Homo sapiens) (UniProt P07332); details: Compound concentration 1000.0 nM
# [38] = biological target: Calcium/calmodulin-dependent protein kinase type 1D (Homo sapiens) (UniProt Q8IU85); details: Compound concentration 1000.0 nM
# NUAK family SNF1-like kinase 2 (Homo sapiens), sequence (Q9H093 whole entry): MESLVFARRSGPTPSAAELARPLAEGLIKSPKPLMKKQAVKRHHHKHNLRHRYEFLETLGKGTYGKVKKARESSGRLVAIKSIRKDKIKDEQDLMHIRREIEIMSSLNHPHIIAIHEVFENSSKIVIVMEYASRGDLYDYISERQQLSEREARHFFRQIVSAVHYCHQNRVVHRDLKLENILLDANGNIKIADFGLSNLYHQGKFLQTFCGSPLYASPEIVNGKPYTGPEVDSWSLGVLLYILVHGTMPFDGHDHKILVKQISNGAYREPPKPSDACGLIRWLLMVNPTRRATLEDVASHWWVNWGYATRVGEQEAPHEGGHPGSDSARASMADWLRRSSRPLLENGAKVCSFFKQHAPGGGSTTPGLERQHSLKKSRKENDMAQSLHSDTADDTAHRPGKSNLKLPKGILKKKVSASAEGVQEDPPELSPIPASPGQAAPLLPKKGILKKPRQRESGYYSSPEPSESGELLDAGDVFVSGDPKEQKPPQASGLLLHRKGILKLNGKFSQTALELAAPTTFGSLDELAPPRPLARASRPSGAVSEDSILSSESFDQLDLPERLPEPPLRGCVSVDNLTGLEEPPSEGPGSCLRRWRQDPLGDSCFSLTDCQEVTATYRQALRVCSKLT
# Mitogen-activated protein kinase 9 (Homo sapiens), sequence (P45984 whole entry, looked up): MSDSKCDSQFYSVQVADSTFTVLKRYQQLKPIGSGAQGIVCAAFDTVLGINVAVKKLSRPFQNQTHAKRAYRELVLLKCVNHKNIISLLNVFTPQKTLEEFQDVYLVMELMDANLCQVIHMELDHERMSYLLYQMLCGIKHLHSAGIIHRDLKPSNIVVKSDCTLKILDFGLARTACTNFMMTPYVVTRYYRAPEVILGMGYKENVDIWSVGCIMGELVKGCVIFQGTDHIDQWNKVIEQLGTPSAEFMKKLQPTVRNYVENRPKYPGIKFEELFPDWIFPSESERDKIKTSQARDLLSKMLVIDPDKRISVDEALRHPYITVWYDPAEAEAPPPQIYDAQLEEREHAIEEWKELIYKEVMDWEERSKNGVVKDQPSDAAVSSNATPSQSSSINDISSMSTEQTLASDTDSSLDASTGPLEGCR
# Serine/threonine-protein kinase 38 (Homo sapiens), sequence (Q15208 2-465 limits assumed): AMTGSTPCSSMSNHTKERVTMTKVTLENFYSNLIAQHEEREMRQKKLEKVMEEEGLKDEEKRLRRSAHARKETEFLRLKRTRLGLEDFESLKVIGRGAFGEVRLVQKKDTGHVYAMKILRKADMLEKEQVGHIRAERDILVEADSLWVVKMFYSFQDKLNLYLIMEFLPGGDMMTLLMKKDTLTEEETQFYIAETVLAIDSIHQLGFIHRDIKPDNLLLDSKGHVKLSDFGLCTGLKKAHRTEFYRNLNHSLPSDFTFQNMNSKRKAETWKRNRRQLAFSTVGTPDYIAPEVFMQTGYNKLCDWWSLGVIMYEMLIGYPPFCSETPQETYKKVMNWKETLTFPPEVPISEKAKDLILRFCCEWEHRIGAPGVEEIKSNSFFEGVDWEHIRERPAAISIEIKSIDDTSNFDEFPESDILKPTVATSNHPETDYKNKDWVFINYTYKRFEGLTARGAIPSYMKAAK
# Serine/threonine-protein kinase haspin (Homo sapiens), sequence (Q8TF76 whole entry): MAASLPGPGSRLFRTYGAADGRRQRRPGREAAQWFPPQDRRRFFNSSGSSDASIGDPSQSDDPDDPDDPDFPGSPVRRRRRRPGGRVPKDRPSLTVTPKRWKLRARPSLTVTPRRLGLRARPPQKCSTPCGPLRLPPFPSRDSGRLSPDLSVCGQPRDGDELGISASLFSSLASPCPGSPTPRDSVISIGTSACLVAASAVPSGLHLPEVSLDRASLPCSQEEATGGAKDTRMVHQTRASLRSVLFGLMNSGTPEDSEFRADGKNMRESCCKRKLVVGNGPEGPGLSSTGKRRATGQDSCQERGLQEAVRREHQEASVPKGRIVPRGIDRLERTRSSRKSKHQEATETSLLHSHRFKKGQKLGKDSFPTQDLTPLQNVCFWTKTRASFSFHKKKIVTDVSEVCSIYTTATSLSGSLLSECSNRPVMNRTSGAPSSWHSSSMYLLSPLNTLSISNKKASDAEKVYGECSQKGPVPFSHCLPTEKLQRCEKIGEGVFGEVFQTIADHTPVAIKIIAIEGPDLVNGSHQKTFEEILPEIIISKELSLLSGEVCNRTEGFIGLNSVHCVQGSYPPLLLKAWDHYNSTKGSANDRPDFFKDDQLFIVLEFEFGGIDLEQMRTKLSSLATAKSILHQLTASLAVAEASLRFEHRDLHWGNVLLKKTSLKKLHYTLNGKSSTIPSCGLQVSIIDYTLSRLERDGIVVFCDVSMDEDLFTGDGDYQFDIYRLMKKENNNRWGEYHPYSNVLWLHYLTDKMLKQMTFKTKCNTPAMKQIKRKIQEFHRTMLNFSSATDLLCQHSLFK
# Ribosomal protein S6 kinase alpha-4 (Homo sapiens), sequence (O75676 whole entry, looked up): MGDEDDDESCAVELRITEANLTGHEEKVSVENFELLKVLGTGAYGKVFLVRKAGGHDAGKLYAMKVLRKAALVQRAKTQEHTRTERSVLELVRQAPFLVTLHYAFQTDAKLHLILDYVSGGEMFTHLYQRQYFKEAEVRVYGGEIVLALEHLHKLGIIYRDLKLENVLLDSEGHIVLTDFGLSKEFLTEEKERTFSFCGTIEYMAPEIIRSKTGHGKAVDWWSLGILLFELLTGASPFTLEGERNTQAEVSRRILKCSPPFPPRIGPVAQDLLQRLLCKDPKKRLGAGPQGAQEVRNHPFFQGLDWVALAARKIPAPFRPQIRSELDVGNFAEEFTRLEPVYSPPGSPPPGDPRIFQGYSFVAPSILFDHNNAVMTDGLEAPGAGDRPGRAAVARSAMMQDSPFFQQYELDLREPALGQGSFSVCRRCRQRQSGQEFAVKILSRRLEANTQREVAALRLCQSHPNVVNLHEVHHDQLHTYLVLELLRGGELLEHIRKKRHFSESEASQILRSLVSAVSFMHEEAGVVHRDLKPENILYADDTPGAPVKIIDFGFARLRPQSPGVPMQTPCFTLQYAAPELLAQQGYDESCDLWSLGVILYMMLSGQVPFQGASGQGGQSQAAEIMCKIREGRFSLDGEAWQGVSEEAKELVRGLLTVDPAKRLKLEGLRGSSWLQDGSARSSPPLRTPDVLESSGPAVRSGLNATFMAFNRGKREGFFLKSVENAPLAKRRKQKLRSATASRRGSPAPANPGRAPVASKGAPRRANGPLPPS
# Proto-oncogene tyrosine-protein kinase receptor Ret (Homo sapiens), P07949 [M918T], sequence (P07949 whole entry M918T, the tested form may be a part): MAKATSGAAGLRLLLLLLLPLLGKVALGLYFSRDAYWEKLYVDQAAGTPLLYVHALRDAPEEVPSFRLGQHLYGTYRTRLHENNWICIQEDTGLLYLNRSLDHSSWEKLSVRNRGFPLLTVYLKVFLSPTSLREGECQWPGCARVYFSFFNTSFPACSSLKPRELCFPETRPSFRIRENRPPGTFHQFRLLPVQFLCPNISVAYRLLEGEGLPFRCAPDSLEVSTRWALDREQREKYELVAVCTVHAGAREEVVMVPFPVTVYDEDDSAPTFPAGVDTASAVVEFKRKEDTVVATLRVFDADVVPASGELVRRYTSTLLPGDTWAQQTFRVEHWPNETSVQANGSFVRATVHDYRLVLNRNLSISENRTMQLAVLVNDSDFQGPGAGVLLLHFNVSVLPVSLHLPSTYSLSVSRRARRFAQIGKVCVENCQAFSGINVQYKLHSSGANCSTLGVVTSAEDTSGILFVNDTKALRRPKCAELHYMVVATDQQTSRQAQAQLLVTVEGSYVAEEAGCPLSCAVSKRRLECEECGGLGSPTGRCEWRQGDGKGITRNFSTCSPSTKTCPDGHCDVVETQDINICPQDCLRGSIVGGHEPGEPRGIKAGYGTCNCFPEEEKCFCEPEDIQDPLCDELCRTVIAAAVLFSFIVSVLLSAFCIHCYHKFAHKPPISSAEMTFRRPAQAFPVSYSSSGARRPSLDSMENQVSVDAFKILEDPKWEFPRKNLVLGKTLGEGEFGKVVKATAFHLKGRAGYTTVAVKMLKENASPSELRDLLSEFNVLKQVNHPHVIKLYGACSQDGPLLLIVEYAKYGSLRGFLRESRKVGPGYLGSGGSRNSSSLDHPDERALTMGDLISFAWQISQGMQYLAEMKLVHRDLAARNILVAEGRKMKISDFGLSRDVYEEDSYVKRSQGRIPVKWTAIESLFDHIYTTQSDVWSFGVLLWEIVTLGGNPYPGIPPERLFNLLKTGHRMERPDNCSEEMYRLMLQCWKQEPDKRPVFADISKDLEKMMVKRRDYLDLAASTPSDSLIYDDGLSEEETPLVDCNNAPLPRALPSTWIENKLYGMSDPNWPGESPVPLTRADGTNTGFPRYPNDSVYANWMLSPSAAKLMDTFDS
# Mitogen-activated protein kinase 4 (Homo sapiens), sequence (P31152 whole entry): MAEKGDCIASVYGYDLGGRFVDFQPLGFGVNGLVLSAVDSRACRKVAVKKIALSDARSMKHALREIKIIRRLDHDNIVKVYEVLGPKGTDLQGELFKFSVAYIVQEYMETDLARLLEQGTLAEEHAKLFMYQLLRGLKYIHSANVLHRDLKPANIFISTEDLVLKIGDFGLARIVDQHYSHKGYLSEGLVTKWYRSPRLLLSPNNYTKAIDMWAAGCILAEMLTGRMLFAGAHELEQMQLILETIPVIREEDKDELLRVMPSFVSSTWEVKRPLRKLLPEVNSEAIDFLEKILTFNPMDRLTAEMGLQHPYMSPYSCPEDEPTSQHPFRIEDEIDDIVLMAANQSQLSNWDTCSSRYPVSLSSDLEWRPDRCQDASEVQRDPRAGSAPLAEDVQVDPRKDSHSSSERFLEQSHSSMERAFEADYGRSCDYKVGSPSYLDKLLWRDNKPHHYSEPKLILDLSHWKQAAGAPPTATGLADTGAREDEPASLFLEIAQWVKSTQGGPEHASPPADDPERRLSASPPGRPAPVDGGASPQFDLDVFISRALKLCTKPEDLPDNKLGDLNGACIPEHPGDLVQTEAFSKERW
# Proto-oncogene tyrosine-protein kinase receptor Ret (Homo sapiens), sequence (P07949 whole entry): as the sequence (P07949 whole entry M918T, the tested form may be a part) above, with T918M counted along it
Structure (SMILES),residual activity [1] [%],residual activity [2] [%],residual activity [3] [%],residual activity [4] [%],residual activity [5] [%],residual activity [6] [%],residual activity [7] [%],residual activity [8] [%],residual activity [9] [%],residual activity [10] [%],residual activity [11] [%],residual activity [12] [%],residual activity [13] [%],residual activity [14] [%],% Inhibition of Control Specific Binding (Mean n=2) [15] [%],inhibition [16] [%],residual activity [17] [%],residual activity [18] [%],residual activity [19] [%],residual activity [20] [%],also measured
O=C(NS(=O)(=O)c1ccc(NCC2CCOCC2)c([N+](=O)[O-])c1)c1ccc(N2CCN(Cc3ccc(C(F)(F)F)cc3-c3ccc(Cl)cc3)CC2)cc1Oc1cnc2[nH]ccc2c1 [A-1210227],89,92,100,90,99,70,100,100,100,100,77,88,86,100,3.5,15.6,100,90,91,100,residual activity [21]: 100%; residual activity [22]: 96%; residual activity [23]: 97%; residual activity [24]: 97%; residual activity [25]: 98%; residual activity [26]: 100%; residual activity [27]: 98%; residual activity [28]: 100%; residual activity [29]: 95%; residual activity [30]: 96%; residual activity [31]: 100%; residual activity [32]: 85%; % Inhibition of Control Specific Binding (Mean n=2) [33]: -10.1%; residual activity [34]: 85%; residual activity [35]: 73%; residual activity [36]: 86%; residual activity [37]: 100%; residual activity [38]: 92%
CO[C@H]1CC[C@H](CNc2ccc(S(=O)(=O)NC(=O)c3ccc(N4CCN(CC5=C(c6ccc(Cl)cc6)CC(C)(C)CC5)CC4)cc3Oc3cnc4[nH]ccc4c3)cc2[N+](=O)[O-])CC1 [A-1211212],90,84,100,98,100,72,100,100,91,85,81,95,96,85,4.2,33,100,83,68,100,residual activity [21]: 100%; residual activity [22]: 96%; residual activity [23]: 100%; residual activity [24]: 87%; residual activity [25]: 4.4%; residual activity [26]: 68%; residual activity [27]: 93%; residual activity [28]: 98%; residual activity [29]: 100%; residual activity [30]: 100%; residual activity [31]: 90%; residual activity [32]: 82%; % Inhibition of Control Specific Binding (Mean n=2) [33]: -36.3%; residual activity [34]: 88%; residual activity [35]: 67%; residual activity [36]: 58%; residual activity [37]: 100%; residual activity [38]: 80%
